Results published in patent US9220700B2, “Cysteine for physiological injection” (Cornell University, priority 2009, dated 2015).

How the values were obtained:
[1] = tested on: rats; assay: L-cysteine toxicology in rats; type: in vivo; details: conscious rats; bolus injections of 750 mg/kg intravenously
Text: This Example describes toxicology studies performed using FDA guidelines.

[2] = tested on: neuromuscular blockade produced by CW002; details: previous study (Sunaga et al.); cited from earlier work
[3] = tested on: anesthetized male beagles; details: 100 mg/kg; previous work by the inventors; cited from earlier work
[4] = Natural pH, solubility and precipitation of cysteine solutions (general statements); type: physicochemical
[5] = tested on: neuromuscular blockade; assay: Reversibility of neuromuscular blockade effects by administration of thiol compounds; type: in vivo; details: administration of thiol compounds such as cysteine (L or D) or glutathione
[6] = tested on: neuromuscular blockade produced by CW002; assay: Reversal of CW002 neuromuscular blockade (recovery of muscle twitch) by cysteine in anesthetized beagles; type: in vivo; details: 0.08 mg/kg CW002, cysteine given 1 minute after CW002
Description: Three anesthetized male beagles received CW002. After 1 minute and complete loss of muscle twitch, D-cysteine was administered at dosages of 10, 20, 50 or 100 mg/kg. Each dose was given as a single experiment separated from other experiments by at least 7 days. The rate and time to complete recovery of muscle twitch in each animal was determined.

N[C@@H](CS)C(=O)O [L-cysteine]
Clinical, biochemical, or histological evidence of organ toxicity [1]: No animals exhibited clinical, biochemical, or histological evidence of organ toxicity
Dose range effective for reversal of CW002 (previously described) [2]: 30 to 50 mg/kg
Effect on blood pressure (previous work) [3]: modest increase in blood pressure

N[C@@H](CS)C(=O)O [cysteine]
solubility ([4]; base form, read-out: Solubility of cysteine in its base form): ≤ 50 mg/mL
Precipitation of cysteine solutions adjusted with sodium hydroxide ([4]; pH values above 3): rapid cystine precipitation

COc1ccc(C[C@@H]2c3cc(OC)c(OC)cc3CC[N@@+]2(C)CCCOC(=O)/C=C\C(=O)OCCC[N@+]2(C)CCc3cc(OC)c(OC)cc3[C@H]2Cc2cc(OC)c(OC)c(OC)c2)cc1OC [CW 011]
Reversibility of neuromuscular blockade effects by thiol compounds [5]: reversible

N[C@H](CS)C(=O)O [D-cysteine]
Dose range effective for reversal of CW002 [6]: 30 to 50 mg/kg

COc1ccc(CC2c3cc(OC)c(OC)cc3CC[N+]2(C)CCCOC(=O)/C=C/C(=O)OCCC[N+]2(C)CCc3cc(OC)c(OC)cc3C2Cc2ccc(OC)c(OC)c2)cc1OC (centres unmarked) [CW002]
Reversibility of neuromuscular blockade effects by thiol compounds [5]: reversible
